Laboratory results reported in patent publication US11079383B2, “Diagnosis and monitoring treatment of prostate cancer” (THE GENERAL HOSPITAL CORPORATION, priority 2012, dated 2021).
Entries after “also recorded” stand apart in the source; their conditions may differ.

Legend:
[1] = tested on: LNCaP cells; test: Multiparameter single cell immunofluorescence assay for AR signaling (PSA/PSMA) in LNCaP cells; type: cell-based, human; settings: androgen-starved LNCaP cells (3 days 10% charcoal-stripped serum) treated with 1 nM R1881
Text: To achieve multiparameter single cell analysis of AR activity, an automated fluorescence microscopy scanning platform was adapted to distinctly and specifically measure four fluorescent emission spectra simultaneously. Secondary fluorophores and optical band pass filters were selected to avoid “cross-talk” between the multiple fluorescent signals that are closely located on the electromagnetic spectrum, while maximizing signal intensity. The disclosed assay for quantitative measurement of signal intensity profiles for cells stained with antibodies against PSA and PSMA was developed using a model cell system (LNCaP). […]
(§1) Immunofluorescence Staining and Automated Fluorescence Microscopy To establish and validate the immunofluorescence single cell AR signature, LNCaP cells were cultured in media containing 10% charcoal-stripped serum for 3 days followed by treatment with 1 nM R1881 or 10 μM bicalutamide for 24 hours. […] An automated upright fluorescence microscopy scanning system (BioView) fitted with a precision motorized stage and xenon arc lamp (Lumen 2000, Prior Scientific) was used to comprehensively image each CTC-chip under 10× magnification in seven z-planes. Due to inherent auto fluorescence of biological samples that can interfere with the specificity of stains in the green spectra, the negative control marker, CD45, was paired with the Alexa Fluor 488 secondary antibody. […]

[2] = tested on: metastatic CRPC; settings: men with metastatic CRPC who have previously received chemotherapy; cited from earlier work
[3] = tested on: CTCs from patients with CRPC; test: AR signaling phenotypes in CTCs from CRPC patients before and after second line hormonal therapy (HBCTC-Chip); type: in vivo, human; settings: for Effect of second line hormonal treatment on CTC numbers and AR phenotypes: CRPC patients, ketoconazole N=1, bicalutamide N=2, abiraterone acetate N=13
Method: (§2) Patients and Clinical Specimens Patients with metastatic prostate cancer receiving treatment at the Massachusetts General Hospital (MGH) were recruited according to an institutional review board (IRB) approved protocol. A total of 21 prostate cancer patients donated 10-20 mL of blood on one or more occasions for CTC analysis. A total of 21 male patients with no known diagnosis of cancer were recruited during routine visits to the MGH outpatient internal medicine clinic according to a separate IRB approved protocol. CTC capture using the ^HBCTC-Chip was performed as described (Stott S L, et al. Proc Natl Acad Sci USA 2010; 107: 18392-7), with anti-EpCAM mediated capture of cells, followed by combined staining with anti-PSA, anti-PSMA, and anti-CD45 antibodies (described in detail below).
HBCTC-Chip Blood Processing All specimens were collected into Vacutainer (Becton-Dickson) tubes containing the anticoagulant EDTA and were processed through the ^HBCTC-Chip within 6 hours of blood draw. Samples were run on the previously described microfluidic processing machine (Stott S L, et al. Proc Natl Acad Sci USA 2010; 107: 18392-7). Briefly, a 5 mL aliquot of blood was placed in an airtight conical tube on a rocker assembly, and 2-4 mL of blood were pneumatically driven through the chip at a flow rate of 1-1.5 mL/hour. Following processing, the ^HBCTC-Chip was flushed with 2.5 mL of PBS at 2.5 mL/hour to remove nonspecifically bound cells. Isolated CTCs were then subjected to immunofluorescence staining, as described below.
Immunofluorescence Staining and Automated Fluorescence Microscopy To establish and validate the immunofluorescence single cell AR signature, LNCaP cells were cultured in media containing 10% charcoal-stripped serum for 3 days followed by treatment with 1 nM R1881 or 10 μM bicalutamide for 24 hours. Once the assays were validated in cultured cells, they were applied to cells spiked into whole blood and isolated on the CTC-Chip, to healthy donor blood samples to establish the signal intensity threshold for detection, and ultimately on primary patient samples processed through the Chip. Cells captured on the ^HBCTC-chip were fixed with 4% formaldehyde and permeabilized with 1% NP-40 in PBS. Immunofluorescence staining was performed using a rabbit polyclonal anti-PSA antibody (DAKO), a mouse monoclonal IgG1 anti-PSMA antibody (J591; N. Bander), and a mouse monoclonal IgG2a anti-CD45 antibody (Abcam), followed by appropriately matched secondary antibodies conjugated with DyLight 649 (Jackson ImmunoResearch), Alexa Fluor 555 (Invitrogen), and Alexa Fluor 488 (Invitrogen). Nuclei were stained with DAPI. An automated upright fluorescence microscopy scanning system (BioView) fitted with a precision motorized stage and xenon arc lamp (Lumen 2000, Prior Scientific) was used to comprehensively image each CTC-chip under 10× magnification in seven z-planes. Due to inherent auto fluorescence of biological samples that can interfere with the specificity of stains in the green spectra, the negative control marker, CD45, was paired with the Alexa Fluor 488 secondary antibody. This choice reduced the sensitivity of the staining assay (potentially more false negatives), but lessened the risk of false positives through natural autofluorescence. Conversely, PSA, the highest affinity antibody tested (and subsequently strongest fluorescent signal) was placed in the Cy5 channel, where the quantum efficiency of traditional monochrome CCD sensors is reduced. To successfully achieve distinct, non-overlapping fluorescent signals in four colors while maximizing the fluorescent intensity output, modified Magnetron sputter-coated filter sets were selected for the Cy3 and Cy5 spectra (Chroma). Additional filter sets for the DAPI and FITC channel were used and exposure times were optimized. All samples were subsequently imaged at predetermined exposure times. […]

[4] = tested on: CTCs from patients with castration-sensitive prostate cancer; test: AR signaling phenotypes in CTCs from patients with castration-sensitive metastatic prostate cancer before and after ADT (HBCTC-Chip); type: in vivo, human; settings: for Change of CTC AR signaling phenotype after ADT: treatment-naive castration-sensitive metastatic prostate cancer patients with detectable CTCs
Method: as §2
HBCTC-Chip Blood Processing All specimens were collected into Vacutainer (Becton-Dickson) tubes containing the anticoagulant EDTA and were processed through the ^HBCTC-Chip within 6 hours of blood draw. Samples were run on the previously described microfluidic processing machine (Stott S L, et al. Proc Natl Acad Sci USA 2010; 107: 18392-7). Briefly, a 5 mL aliquot of blood was placed in an airtight conical tube on a rocker assembly, and 2-4 mL of blood were pneumatically driven through the chip at a flow rate of 1-1.5 mL/hour. […]
as §1

In the case of `C[C@]1(O)CC[C@H]2[C@@H]3CCC4=CC(=O)CCC4=C3C=C[C@@]21C` [R1881], the “AR signaling phenotype (PSA/PSMA signal intensity profile) over time” value [1] is reported as “time-dependent progression from an initial “AR-off” (PSA−/PSMA+) to an intermediate “AR-mixed” (PSA+/PSMA+) phenotype, and finally to an “AR-on” (PSA+/PSMA−) pattern”.

For `CC(=O)O[C@H]1CC[C@@]2(C)C(=CC[C@@H]3[C@@H]2CC[C@]2(C)C(c4cccnc4)=CC[C@@H]32)C1` [abiraterone acetate], the Overall survival [2] is given as “increases overall survival”, the “CRPC patients with a stable percentage of AR-on CTCs after therapy” value ([3]; 6 of 13 patients) is given as 46% and the “Effect of second line hormonal treatment on CTC numbers and AR phenotypes” value [3] is given as “varying effects on CTC numbers and AR phenotypes”. For the same compound, the “Change in proportion of PSA+/PSMA− AR-on CTCs in an individual CRPC patient” value ([3]; single patients, after initiation of therapy (FIG. 4A, FIG. 4C)) was “a decrease in the proportion of PSA+/PSMA− “AR-on” CTCs; also recorded: Increase in the proportion of PSA+/PSMA− “AR-on” CTCs”, the “CRPC patients with ≥50% decline in the percentage of AR-on (PSA+/PSMA−) CTCs” value ([3]; within 2-5 weeks of therapy, 4 of 13 patients) was 31% and the “CRPC patients with ≥50% increase in the percentage of AR-on CTCs” value ([3]; within the first 2-5 weeks of therapy, 3 of 13 patients) was 23%.

For `CC(=O)N1CCN(c2ccc(OCC3COC(Cn4ccnc4)(c4ccc(Cl)cc4Cl)O3)cc2)CC1` (centres unmarked) [ketoconazole], the “Effect of second line hormonal treatment on CTC numbers and AR phenotypes” value [3] was “varying effects on CTC numbers and AR phenotypes”.

In the case of `CCNC(=O)[C@@H]1CCCN1C(=O)[C@H](CCCNC(=N)N)NC(=O)[C@H](CC(C)C)NC(=O)[C@@H](CC(C)C)NC(=O)[C@H](Cc1ccc(O)cc1)NC(=O)[C@H](CO)NC(=O)[C@H](Cc1c[nH]c2ccccc12)NC(=O)[C@H](Cc1c[nH]cn1)NC(=O)[C@@H]1CCC(=O)N1` [leuprolide], the “Change of CTC AR signaling phenotype after ADT” value [4] is reported as “transformation of CTCs from the “AR-on” (PSA+/PSMA−) phenotype to the “AR-off” (PSA−/PSMA+) phenotype”, the “Change of CTC AR signaling phenotype after ADT” value ([4]; listed as ADT) is reported as “transformation of the majority of CTCs from the “AR-on” to the “AR-off” phenotype within one month” and the “Presence of CTCs after initiation of ADT” value ([4]; treatment-naive metastatic prostate cancer patients with detectable CTCs) is reported as “complete disappearance of CTCs by 3 months”.
